Measurements published in publication PMC2913955, “Whole-cell fungal transformation of precursors into dyes” (Microbial Cell Factories, 2010).
≈ marks a conversion by molar mass, not a printed value. Where “and” joins values, the source holds several entries; their conditions need not be identical. Identical values can stand only once. Marks after values point to notes of the source that are not given here.

Legend:
[1] = Cyclic voltammetry of precursors (oxidation and reduction potentials); type: physicochemical; conditions: for Eo (oxidation potential) / Er (reduction potential): 1 mM precursor, 100 mM Na-tartrate buffer pH 4.5, graphite working electrode, Ag/AgCl reference; for oxidation and reduction peaks: pH 4.5, scan rates of 25 to 200 mV/s
Method: To find correlations between the degree of precursor transformation by fungi and its oxidation potential, cyclic voltammetry (CV) was done. All the tested compounds were characterized using CV at a graphite working electrode at pH 4.5.
Cyclic voltammetry of the tested precursors was performed using an MTM-Anko apparatus type M161 (Poland) equipped with a graphite working electrode, a platinum counter electrode, and an Ag/AgCl reference electrode. The precursors were dissolved using 100 mM Na-tartrate buffer, pH 4.5, to 1 mM final concentration. […] All potentials in this work were referred to the Ag/AgCl reference electrode.

[2] = Autoxidation of precursors on agar plates without actively growing mycelium (control samples); type: physicochemical; conditions: 1 mM precursor in GPA agar; for Precursors autoxidation: without mycelium; for autoxidation (in words): control samples without mycelium; on Precursors autoxidation: key: - no; -/+ - slightly; + high; ++ very high
Method: (§1) Agar-plate screening of several different precursors, benzoic and naphthalene derivatives was performed using fungal biomass as a biocatalyst (Table 1). Among these precursors were chemicals consisting of amino-, hydroxy-, nitro-, sulfonic- and carboxy- substituents. The ability of the fungi to grow in the presence of the precursors and to transform the latter into coloured products was monitored during 14 days of the experiment. […] In order to check the autoxidation ability of the precursors, the appearance of their coloured products without the presence of actively growing mycelium was monitored (control samples).
(§2) The agar-plate screening test was performed using sterile 24-well tissue culture plates (16.2 mm in diameter). Each well contained 2.5 mL (± 0.2 mL) of sterile GPA medium with the addition of 2% agar and a precursor at a concentration of 1 mM. Each well was inoculated with one agar plug (3 mm in diameter) from the leading edge of colony, which had been maintained on MEA for at least 7 days at 25°C. The plates were incubated at 25°C, and the ability of the fungi to grow and transform the precursors into coloured products was monitored over the next 14 days.

[3] = system: Abortiporus biennis (AB123); assay: Agar-plate screening test, transformation of precursors into coloured products; type: cell-based; conditions: strain AB123, 1 mM precursor
Method: as §1
(§3) The colour intensity of the products obtained during the biotransformation of the precursors by fungi was analyzed after 7 days of cultivation. This intensity was expressed by different numbers; the value 0 expressed a lack of colour and the values in the range from 1 to 4 expressed a rising intensity of colour.
as §2

Cerrena unicolor (CU139) = assay: as above; type: cell-based; conditions: strain CU139, 1 mM precursor
Method: as §1, §3, §2

Fomes fomentarius (FF25) = assay: as above; type: cell-based; conditions: strain FF25, 1 mM precursor
Method: as §1, §3, §2

[4] = system: Trametes versicolor (TV7); assay: as above; type: cell-based; conditions: strain TV7, 1 mM precursor
Method: as §1, §3, §2

Caco-2 cells = assay: Neutral Red uptake assay (NRU) cytotoxicity; type: cell-based, human; conditions: Caco-2, precursor itself; for IC50: Homo sapiens
Method: The cytotoxicity of precursors and products was tested using the Neutral Red uptake assay (NRU) with Caco-2 cells (Table 5). The EU classifies a chemical to be not environmentally toxic if the IC50 is above 0.1 mg/mL, which was the case for the selected products as measured with the NRU test. […] In the case of the dyes obtained after transformation of AHBS and ANS by FF25, AB123, or TV7, all the samples had IC50's of more than 1 mg/mL and were essentially non-toxic. In the case of control cultures, growing without the addition of precursors, only the sample of TV7 was slightly toxic (IC50 = 0.85 mg/mL) while other control cultures (AB123, CU139, and FF25) had IC50's higher than one (Table 5).
The toxicity of precursors and products was evaluated using the Neutral Red uptake assay (NRU) with Caco-2 human intestinal cell-line as an in vitro test system. Samples of products were lyophilized and then dissolved in dimethyl sulfoxide (DMSO) to a stock solution concentration of 100 mg/mL. The cytotoxicity of dyes was expressed as the half-maximal inhibitory concentration (IC50 - mg/mL), where values higher than 1 represented low cytotoxicity, values within the range from 0.1 to 1 represented medium cytotoxicity, and values below 0.1 represented high cytotoxicity of samples [10]. Additionally, the cytotoxicity of the fungal liquid culture without precursors and products was checked as a control.

Eo (oxidation potential) ([1]; scan rate 50 mV/s) | Er (reduction potential) ([1]; scan rate 50 mV/s) | SMILES | Precursors autoxidation [2] | autoxidation (in words) [2] | other results
647 mV |  | Nc1ncccc1O [Precursor 2A3HP, 2-amino-3-hydroxypyridine] | -/+ | very slight autoxidation | IC50 (Caco-2 cells): 55 ± 28 µg/mL (≈ 499 µM)
968 mV | 5.4^a mV | Nc1cccc(S(=O)(=O)O)c1 [Precursor 3ABS, 3-aminobenzenesulfonic acid] | - |  | 
818 mV |  | Nc1ccc(S(=O)(=O)O)c(N)c1 [2,4DABS, 2,4-diaminobenzenesulfonic acid] | - |  | 
1013 mV | -0.5 mV | Nc1ccccc1S(=O)(=O)O [Precursor A2SA, aniline-2-sulfonic acid] | - |  | 
433 mV | -356 mV and -356^a mV | Nc1ccc(N)c(S(=O)(=O)O)c1 [2,5DABS, 2,5-diaminobenzenesulfonic acid] | -/+ | very slight autoxidation | IC50 (Caco-2 cells): > 1000 µg/mL
579 mV | -92 mV | Nc1cc(S(=O)(=O)O)cc([N+](=O)[O-])c1O [AHNBS, 3-amino-4-hydroxy-5-nitrobenzenesulfonic acid] | + | very rapid and very intensive autoxidation | 

The next lines start with the compound.

SMILES | Eo (oxidation potential) ([1]; scan rate 50 mV/s) | Er (reduction potential) ([1]; scan rate 50 mV/s) | Precursors autoxidation [2] | autoxidation (in words) [2] | other results
O.O.O.O.Oc1ccccc1-c1ccccc1.[Na] [Precursor 2PP, 2-phenylphenol sodium salt tetrahydrate] | 790 mV |  | - |  | growth of mycelium in the presence of precursor [3]: unable to grow; growth of mycelium in the presence of precursor (Cerrena unicolor (CU139)): unable to grow; growth of mycelium in the presence of precursor (Fomes fomentarius (FF25)): unable to grow; growth of mycelium in the presence of precursor [4]: unable to grow
Nc1c(O)cc(S(=O)(=O)O)c2ccccc12 [Precursor 4AHNS, 4-amino-3-hydroxy-1-naphthalenesulfonic acid] | 251 mV |  | ++ | very rapid and very intensive autoxidation | 
Nc1ccc2cc(S(=O)(=O)O)cc(O)c2c1 [Precursor 6AHNS, 6-amino-4-hydroxy-2-naphthalenesulfonic acid] | 499 mV |  | -/+ | very slight autoxidation | 
Oc1ccc2ccc(O)cc2c1 [DHN, 2,7-dihydroxynaphtalene] | 672 mV |  | -/+ | very slight autoxidation | IC50 Precursor (Caco-2 cells): 107 ± 3.6 µg/mL (≈ 668 µM)
Nc1cccc2c(S(=O)(=O)O)cccc12 [ANS, 5-amino-1-naphthalenesulfonic acid] | 680 mV |  | - |  | IC50 (Caco-2 cells): > 1000 µg/mL
O.O=C(O)c1cc(S(=O)(=O)O)ccc1O [Precursor 5SSA, 5-sulfosalicylic acid hydrate] |  |  | - |  | oxidation and reduction peaks [1]: did not exhibit
Nc1cc(S(=O)(=O)O)ccc1O [AHBS, 3-amino-4-hydroxybenzenesulfonic acid] | 518 mV | -103 mV | - |  | IC50 (Caco-2 cells): > 1000 µg/mL
O=S(=O)([O-])c1ccc2cc(O)ccc2c1.[Na+] [HNSA, 6-hydroxy-2-naphthalenesulfonic acid sodium salt] | 893 mV | -144 mV | - |  | 
O=S(=O)(O)c1cc(O)c(O)c(S(=O)(=O)O)c1 [dHBdSA, 4,5-dihydroxy-1,3-benzene-disulfonic acid] |  |  | - |  | Eo (oxidation potential) ([1]; scan rate 25 mV/s): 914^b mV
O=Cc1ccccc1S(=O)(=O)[O-].[Na+] [Precursor 2FBSA, 2-formylbenzenesulfonic acid sodium salt] |  |  | - |  | oxidation and reduction peaks [1]: did not exhibit
Oc1ccccc1O [Cat, 1,2-dihydroxybenzene] | 548 mV | 285 mV | - |  | 
